This is an account of results in BindingDB's records for doi:10.1016/0028-3908(94)90059-0 (University of Alberta, 1994).

Assay [1] addresses 5-hydroxytryptamine receptor 5A (Mus musculus, UniProt P30966).
In assay [2] the target is 5-hydroxytryptamine receptor 7 (Mus musculus, UniProt P32304).
For assay [3], the target named is 5-hydroxytryptamine receptor 1D (Homo sapiens, UniProt P28221).
Assay [4] concerns the target T1, 5-hydroxytryptamine receptor 1F (Homo sapiens, UniProt P30939).
T1 sequence (P30939 whole entry): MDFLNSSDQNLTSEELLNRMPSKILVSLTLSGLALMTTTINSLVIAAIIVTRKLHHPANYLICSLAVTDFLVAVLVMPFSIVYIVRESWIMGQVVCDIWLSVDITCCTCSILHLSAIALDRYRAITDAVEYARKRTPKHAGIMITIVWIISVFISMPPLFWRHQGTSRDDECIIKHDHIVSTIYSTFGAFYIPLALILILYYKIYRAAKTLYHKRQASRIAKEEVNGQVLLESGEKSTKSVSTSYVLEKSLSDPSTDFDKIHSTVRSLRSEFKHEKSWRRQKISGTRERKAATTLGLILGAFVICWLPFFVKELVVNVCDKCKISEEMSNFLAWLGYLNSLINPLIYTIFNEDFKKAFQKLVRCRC

For assay [5], the target named is 5-hydroxytryptamine receptor 1B (Rattus norvegicus, UniProt P28564).
Assay [6] addresses 5-hydroxytryptamine receptor 1B (Homo sapiens, UniProt P28222).
The target in assay [7] is 5-hydroxytryptamine receptor 2B (Rattus norvegicus, UniProt P30994).
For assay [8], the target named is 5-hydroxytryptamine receptor 2B (Mus musculus, UniProt Q02152).
Assay [9] deals with 5-hydroxytryptamine receptor 1D (Canis lupus familiaris, UniProt P11614).
Assay [10] has as its target T2, 5-hydroxytryptamine receptor 1F (Mus musculus, UniProt Q02284).
T2 sequence (Q02284 whole entry): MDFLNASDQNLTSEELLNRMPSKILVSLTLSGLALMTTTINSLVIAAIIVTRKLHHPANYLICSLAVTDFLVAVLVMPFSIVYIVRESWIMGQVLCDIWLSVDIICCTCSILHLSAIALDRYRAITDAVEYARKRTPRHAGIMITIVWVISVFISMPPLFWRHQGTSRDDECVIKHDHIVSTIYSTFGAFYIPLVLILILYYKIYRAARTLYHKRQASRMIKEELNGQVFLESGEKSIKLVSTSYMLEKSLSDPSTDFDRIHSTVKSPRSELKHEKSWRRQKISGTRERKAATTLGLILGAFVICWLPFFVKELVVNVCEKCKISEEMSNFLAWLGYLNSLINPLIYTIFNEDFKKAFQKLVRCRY

Assay [11] has as its target 5-hydroxytryptamine receptor 1B (Mus musculus, UniProt P28334).
Assay [12] deals with 5-hydroxytryptamine receptor 1D (Rattus norvegicus, UniProt P28565).
The target of assay [13] is 5-hydroxytryptamine receptor 1E (Homo sapiens, UniProt P28566).
Assay [14] concerns the target T3, 5-hydroxytryptamine receptor 1F (Rattus norvegicus, UniProt P30940).
T3 sequence (P30940 whole entry): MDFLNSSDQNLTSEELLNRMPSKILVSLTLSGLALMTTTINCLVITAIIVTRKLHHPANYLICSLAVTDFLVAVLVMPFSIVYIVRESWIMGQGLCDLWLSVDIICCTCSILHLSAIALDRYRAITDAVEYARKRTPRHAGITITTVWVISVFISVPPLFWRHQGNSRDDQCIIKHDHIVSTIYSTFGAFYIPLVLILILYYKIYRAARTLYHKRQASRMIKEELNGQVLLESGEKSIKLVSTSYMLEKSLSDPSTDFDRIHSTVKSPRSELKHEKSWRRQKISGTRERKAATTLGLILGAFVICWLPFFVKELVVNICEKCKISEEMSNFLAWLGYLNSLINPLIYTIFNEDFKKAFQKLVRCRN

Several values for one entry are separate records, joined by “and”; a condition that tells them apart may be missing. Equal values may be shown once. Some results are limits rather than exact numbers.

5-hydroxytryptamine receptor 1B (Mus musculus, UniProt P28334), sequence (P28334 whole entry): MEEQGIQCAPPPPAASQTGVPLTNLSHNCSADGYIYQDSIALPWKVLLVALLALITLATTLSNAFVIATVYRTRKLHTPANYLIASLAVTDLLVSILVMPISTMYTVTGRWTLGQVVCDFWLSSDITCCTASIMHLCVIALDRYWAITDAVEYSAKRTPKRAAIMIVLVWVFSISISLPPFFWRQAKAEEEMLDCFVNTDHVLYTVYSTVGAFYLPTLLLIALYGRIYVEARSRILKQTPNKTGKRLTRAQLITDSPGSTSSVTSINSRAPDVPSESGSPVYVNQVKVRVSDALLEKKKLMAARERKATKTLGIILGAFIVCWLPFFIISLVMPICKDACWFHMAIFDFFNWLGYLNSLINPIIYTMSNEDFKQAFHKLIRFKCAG
5-hydroxytryptamine receptor 1D (Homo sapiens, UniProt P28221), sequence (P28221 whole entry): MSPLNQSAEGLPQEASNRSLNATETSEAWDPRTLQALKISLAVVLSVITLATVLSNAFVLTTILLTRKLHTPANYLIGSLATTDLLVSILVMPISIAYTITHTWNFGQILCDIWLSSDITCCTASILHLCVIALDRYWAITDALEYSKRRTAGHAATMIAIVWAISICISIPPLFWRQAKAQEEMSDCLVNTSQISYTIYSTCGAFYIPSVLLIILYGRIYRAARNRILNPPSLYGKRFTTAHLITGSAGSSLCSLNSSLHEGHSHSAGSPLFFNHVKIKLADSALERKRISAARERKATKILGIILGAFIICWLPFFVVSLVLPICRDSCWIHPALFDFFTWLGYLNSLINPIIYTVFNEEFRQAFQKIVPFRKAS
5-hydroxytryptamine receptor 2B (Mus musculus, UniProt Q02152), sequence (Q02152 whole entry): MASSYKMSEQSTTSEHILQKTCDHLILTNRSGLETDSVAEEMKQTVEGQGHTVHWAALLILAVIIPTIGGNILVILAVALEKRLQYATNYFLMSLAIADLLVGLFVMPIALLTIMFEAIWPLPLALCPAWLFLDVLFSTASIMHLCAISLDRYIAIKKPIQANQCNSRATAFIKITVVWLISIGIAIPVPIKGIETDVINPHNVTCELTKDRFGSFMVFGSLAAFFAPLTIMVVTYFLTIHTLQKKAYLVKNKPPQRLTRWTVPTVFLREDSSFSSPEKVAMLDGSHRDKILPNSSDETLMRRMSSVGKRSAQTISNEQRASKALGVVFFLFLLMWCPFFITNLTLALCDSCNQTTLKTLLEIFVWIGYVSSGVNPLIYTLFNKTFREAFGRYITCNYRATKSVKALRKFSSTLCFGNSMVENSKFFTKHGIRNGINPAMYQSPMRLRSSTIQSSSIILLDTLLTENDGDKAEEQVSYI
5-hydroxytryptamine receptor 1B (Homo sapiens, UniProt P28222), sequence (P28222 whole entry): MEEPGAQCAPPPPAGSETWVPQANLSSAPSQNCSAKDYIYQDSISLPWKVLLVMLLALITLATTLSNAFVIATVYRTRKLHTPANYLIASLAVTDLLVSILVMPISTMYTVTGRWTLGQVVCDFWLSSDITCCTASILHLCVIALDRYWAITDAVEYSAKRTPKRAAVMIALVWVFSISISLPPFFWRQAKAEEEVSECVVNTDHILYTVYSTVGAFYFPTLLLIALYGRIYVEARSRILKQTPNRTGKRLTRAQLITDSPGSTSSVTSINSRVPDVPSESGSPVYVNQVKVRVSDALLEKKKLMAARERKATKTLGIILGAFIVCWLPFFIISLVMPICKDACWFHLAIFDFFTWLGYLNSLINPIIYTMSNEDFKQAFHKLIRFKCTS
5-hydroxytryptamine receptor 1D (Canis lupus familiaris, UniProt P11614), sequence (P11614 whole entry): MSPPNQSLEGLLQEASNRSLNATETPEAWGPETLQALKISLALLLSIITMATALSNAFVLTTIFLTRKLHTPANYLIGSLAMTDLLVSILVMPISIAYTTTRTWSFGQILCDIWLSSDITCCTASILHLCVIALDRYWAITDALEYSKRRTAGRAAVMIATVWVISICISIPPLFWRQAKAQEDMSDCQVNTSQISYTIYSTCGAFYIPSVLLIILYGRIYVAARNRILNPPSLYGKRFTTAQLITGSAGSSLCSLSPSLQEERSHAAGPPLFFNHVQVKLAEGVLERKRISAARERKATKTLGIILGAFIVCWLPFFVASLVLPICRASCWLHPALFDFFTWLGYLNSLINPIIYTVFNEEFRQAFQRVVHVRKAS
5-hydroxytryptamine receptor 1B (Rattus norvegicus, UniProt P28564), sequence (P28564 whole entry): as the sequence (P28334 whole entry) above, with A15T, T23A, G33D, E152D, M192V, A270V, D272E, A385T counted along it
5-hydroxytryptamine receptor 7, sequence (P32304 whole entry): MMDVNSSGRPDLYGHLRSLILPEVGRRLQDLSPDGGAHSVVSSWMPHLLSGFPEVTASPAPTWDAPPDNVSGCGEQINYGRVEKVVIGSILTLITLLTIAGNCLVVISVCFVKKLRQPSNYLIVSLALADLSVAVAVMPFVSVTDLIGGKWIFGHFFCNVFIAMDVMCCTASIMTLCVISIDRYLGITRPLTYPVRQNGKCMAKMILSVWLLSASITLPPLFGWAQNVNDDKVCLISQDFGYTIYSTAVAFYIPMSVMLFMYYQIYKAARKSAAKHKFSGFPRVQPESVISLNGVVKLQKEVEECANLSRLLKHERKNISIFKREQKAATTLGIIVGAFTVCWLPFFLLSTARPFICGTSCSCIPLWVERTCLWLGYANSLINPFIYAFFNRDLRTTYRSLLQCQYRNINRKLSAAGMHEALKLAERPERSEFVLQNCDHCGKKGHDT
5-hydroxytryptamine receptor 1E, sequence (P28566 whole entry): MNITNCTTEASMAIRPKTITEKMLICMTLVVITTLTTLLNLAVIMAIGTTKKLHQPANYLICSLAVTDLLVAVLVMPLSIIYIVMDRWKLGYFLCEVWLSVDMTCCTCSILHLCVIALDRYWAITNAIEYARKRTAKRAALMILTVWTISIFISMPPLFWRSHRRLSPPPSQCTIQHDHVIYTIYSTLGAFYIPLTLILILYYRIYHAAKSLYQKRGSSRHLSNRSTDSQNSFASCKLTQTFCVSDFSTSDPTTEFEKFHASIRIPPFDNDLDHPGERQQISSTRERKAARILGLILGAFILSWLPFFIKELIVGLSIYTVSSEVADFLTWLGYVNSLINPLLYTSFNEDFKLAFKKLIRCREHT
5-hydroxytryptamine receptor 1D (Rattus norvegicus, UniProt P28565), sequence (P28565 whole entry): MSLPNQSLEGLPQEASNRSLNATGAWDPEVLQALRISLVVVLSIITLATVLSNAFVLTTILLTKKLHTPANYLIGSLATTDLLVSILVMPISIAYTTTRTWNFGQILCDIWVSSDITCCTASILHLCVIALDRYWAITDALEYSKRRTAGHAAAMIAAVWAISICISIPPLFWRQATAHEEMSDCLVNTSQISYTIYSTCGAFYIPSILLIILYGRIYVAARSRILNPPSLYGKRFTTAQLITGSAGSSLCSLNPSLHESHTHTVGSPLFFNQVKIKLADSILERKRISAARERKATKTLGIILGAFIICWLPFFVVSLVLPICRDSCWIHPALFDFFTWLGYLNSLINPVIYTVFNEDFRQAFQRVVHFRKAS
5-hydroxytryptamine receptor 2B (Rattus norvegicus, UniProt P30994), sequence (P30994 whole entry): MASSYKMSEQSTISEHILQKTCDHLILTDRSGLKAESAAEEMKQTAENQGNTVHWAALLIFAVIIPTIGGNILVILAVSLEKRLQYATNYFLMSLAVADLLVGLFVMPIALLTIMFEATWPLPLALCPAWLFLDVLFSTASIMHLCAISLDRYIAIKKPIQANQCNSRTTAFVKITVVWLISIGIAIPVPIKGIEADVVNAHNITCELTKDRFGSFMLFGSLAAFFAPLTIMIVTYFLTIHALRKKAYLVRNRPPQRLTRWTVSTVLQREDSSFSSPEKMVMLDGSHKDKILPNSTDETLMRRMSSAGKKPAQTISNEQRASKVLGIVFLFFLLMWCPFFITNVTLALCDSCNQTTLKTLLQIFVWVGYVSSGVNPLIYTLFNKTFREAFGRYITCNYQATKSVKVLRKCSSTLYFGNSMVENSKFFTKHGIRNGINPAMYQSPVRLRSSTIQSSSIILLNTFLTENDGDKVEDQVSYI
5-hydroxytryptamine receptor 5A, sequence (P30966 whole entry): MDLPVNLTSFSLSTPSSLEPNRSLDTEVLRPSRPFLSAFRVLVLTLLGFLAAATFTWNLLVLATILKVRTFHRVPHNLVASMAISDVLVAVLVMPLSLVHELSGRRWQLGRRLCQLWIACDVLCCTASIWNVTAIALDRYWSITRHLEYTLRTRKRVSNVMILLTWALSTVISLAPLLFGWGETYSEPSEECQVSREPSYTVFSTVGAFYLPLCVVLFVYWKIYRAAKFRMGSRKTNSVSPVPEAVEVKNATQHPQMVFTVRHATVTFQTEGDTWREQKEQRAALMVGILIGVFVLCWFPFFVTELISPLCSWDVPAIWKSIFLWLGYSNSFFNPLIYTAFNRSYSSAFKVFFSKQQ

In the case of `CCCN(CCC)C1CCc2cccc(O)c2C1` (configuration not stated), the Ki in assay [1] is 1580 nM; in assay [2] it was 251 nM.
For the compound `c1ccc2c(N3CCNCC3)cccc2c1`, the Ki is 7.41 nM in assay [3], 53.7 nM in assay [4], 39.8 nM in assay [5] and 12 nM in [6].
Consider `CC(C)(C)[C@]1(O)CCN2C[C@H]3c4ccccc4CCc4cccc(c43)[C@@H]2C1`, for which the Ki worked out at 3890 nM in assay [4] and 31.6 nM in assay [2].
As for `Cc1[nH]c2ccc(O)cc2c1CCN`, the Ki is 851 nM and 513 nM in assay [6]; 316 nM in [7]; 6610 nM in assay [8].
Compound `NCCc1c[nH]c2ccc(Br)cc12` gave a Ki in assay [7] of 38.9 nM.
Consider `NCCc1c[nH]c2ccccc12` [1H-indole-3-ethanamine], for which the Ki in assay [7] and in assay [8] was 200 nM in each case.
For `COc1ccc2[nH]cc(CCN(C)C)c2c1` [3-(2-DIMETHYLAMINOETHYL)-5-METHOXYINDOLE], in assay [9], the Ki was 5.12 nM.
For the compound `CN(C)CCc1c[nH]c2ccc(O)cc12` [3-[2-(dimethylamino)ethyl]indol-5-ol], affinity in [10] was put at a Ki of 31.6 nM.
In the case of `Cn1cc(CCN)c2cc(O)ccc21` [5-HT,omega-N-Me], the Ki in [7] is 10.5 nM.
With `COc1ccc2[nH]cc(C3=CCNCC3)c2c1` [5-Methoxy-3-(1,2,3,6-tetrahydro-pyridin-4-yl)-1H-indole(RU-24969)], the Ki is 10 nM in assay [11]; 1.58 nM and 2.57 nM and 0.36 nM in assay [5]; 63.1 nM in assay [9]; 46.8 nM in assay [12]; 158 nM in [10].
With `CN1CC(C(=O)N[C@]2(C)O[C@@]3(O)C4CCCN4C(=O)[C@H](Cc4ccccc4)N3C2=O)CC2c3cccc4[nH]cc(c34)CC21` (stereo partly drawn) [7-Methyl-4,6,6a,7,8,9,10,10a-octahydro-indolo[4,3-fg]quinoline-9-carboxylic acid ((2R,5S,10bS)-5-benzyl-10b-hydroxy-2-methyl-3,6-dioxo-octahydro-oxazolo[3,2-a]pyrrolo[2,1-c]pyrazin-2-yl)-amide], the Ki in assay [12] worked out at 0.06 nM; in assay [7], 145 nM.
Take `O=C(CCCN1CCC2(CC1)C(=O)NCN2c1ccccc1)c1ccc(F)cc1` [8-[4-(4-fluorophenyl)-4-oxidanylidene-butyl]-1-phenyl-1,3,8-triazaspiro[4.5]decan-4-one]: the Ki in assay [4] came to 3.98 nM; in [9] it was 1000 nM; in assay [2], 63.1 nM; in assay [12], 61.6 nM; in assay [8] it was 50.1 nM.
In the case of `CCN(CC)C(=O)[C@@H]1C=C2c3cccc4[nH]cc(c34)C[C@H]2N(C)C1` [(4R,7R)-N,N-diethyl-6-methyl-6,11-diazatetracyclo[7.6.1.0^{2,7}.0^{12,16}]hexadeca-1(16),2,9,12,14-pentaene-4-carboxamide], affinity in [9] was put at a Ki of 12.6 nM.
In [2], `CC(C)C[C@H]1C(=O)N2CCC[C@H]2[C@]2(O)O[C@](NC(=O)[C@@H]3C=C4c5cccc6[nH]c(Br)c(c56)C[C@H]4N(C)C3)(C(C)C)C(=O)N12` [Bromocriptine+ (GTP+)] came in with a Ki of 126 nM.
Regarding `CCC(=O)c1ccc(N)cc1` [CAS_6270], the Ki in assay [9] was determined as 34.7 nM.
Take `CN1CCN(c2nc3cc(C(F)(F)F)ccc3n3cccc23)CC1` [CAS_109028-10-6]: the Ki in assay [12] was 4.89 nM.
Regarding `CC(C)NCC(O)COc1cccc2[nH]ccc12` (configuration not stated) [LB-46], the Ki in [11] is 63.1 nM.
Take `CCN(CC)C(=O)[C@@H]1C=C2c3cccc4[nH]c(Br)c(c34)C[C@H]2N(C)C1` [LSD,2-Bromo]: the results for the Ki in assay [2] and in assay [7] were 10 nM and 12.6 nM, respectively.
In the case of `CN1C[C@@H](NS(=O)(=O)N(C)C)C[C@@H]2c3cccc4c3c(cn4C)C[C@H]21` [MESULERGINE], the Ki in [2] was 25.1 nM; in assay [6], 1290 nM and 631 nM.
Take `CN1C[C@H](CNC(=O)OCc2ccccc2)C[C@@H]2c3cccc4c3c(cn4C)C[C@H]21` [METERGOLINE]: the Ki was 0.6 nM in [3]; 1120 nM and 776 nM in [13]; 31.6 nM in assay [2]; 513 nM in assay [14]; 5.24 nM and 36.3 nM in assay [6]; 0.77 nM in assay [12].
Turning to `CN1CCN2c3ccccc3Cc3ccccc3[C@H]2C1` [MIANSERIN (+)], the Ki stood at 12.6 nM in assay [4], 100 nM in assay [2], 30.2 nM in [12] and 100 nM in assay [10].
Regarding `CCCN(CCC)CCc1c[nH]c2ccc(C(N)=O)cc12` [NN-DIPROP-5-CT], the Ki in assay [3] came out at 12.9 nM; in assay [6], 41.7 nM.
For `CN1CCC(=C2c3ccccc3CCc3sccc32)CC1` [NSC_27400], affinity in assay [7] was put at a Ki of 38.9 nM.
In assay [7], `CC(C)n1cc2c3c(cccc31)C1CC(C(=O)NC3CCCCC3)CN(C)C1C2` (configuration not stated) [NSC_60740] registered a Ki of 10.7 nM.
With `CC(C)(C)NCC(O)COc1cccc2[nH]c(C#N)cc12` (configuration not stated) [NSC_155346], the Ki in assay [11] is 2.51 nM; in [5] it was 0.26 nM; in [6], 21.4 nM; in assay [12] it was 36.3 nM.
Take `CN1CCc2cc(Cl)c(O)cc2[C@@H](c2ccccc2)C1` [SCH 23390,R(+)]: the Ki in assay [7] was found to be 83.2 nM.
In the case of `Cc1cc(C(C)(C)C)c(O)c(C)c1CC1=NCCN1` [SMR000059324], the Ki is 2.51 nM and 0.81 nM in [5]; 1.28 nM in assay [12].
In the case of `CNS(=O)(=O)Cc1ccc2[nH]cc(CCN(C)C)c2c1` [Sumax], the Ki in [13] is 2340 nM and 2090 nM; in assay [1], above 10000 nM; in [10], 79.4 nM.
As to `FC(F)(F)c1cccc(N2CCNCC2)c1` [TFMPP], the Ki in assay [12] worked out at 58.9 nM; in assay [7] it was 85.1 nM; in assay [10], 794 nM.
For `CN(C)CCCN1c2ccccc2Sc2ccc(Cl)cc21` [[3-(2-Chloro-phenothiazin-10-yl)-propyl]-dimethyl-amine(Chlorpromazine)], the Ki in [2] was determined as 5010 nM.
With `COc1cc(CC(C)N)c(OC)cc1I` (configuration not stated) [[125I]2,5-dimethoxy-4-iodoamphetamine], the figures for the Ki in assay [4] and in [7] were 2510 nM and 27.5 nM, respectively.
On to `Clc1cccc(N2CCNCC2)c1` [mCPP], for which the Ki in assay [6] is 363 nM and 501 nM; in assay [7] it was 26.9 nM.
With `CSc1ccc2c(c1)C(N1CCN(C)CC1)Cc1ccccc1S2` (configuration not stated) [methanesulfonic acid;1-methyl-4-(3-methylsulfanyl-5,6-dihydrobenzo[b][1]benzothiepin-5-yl)piperazine], the Ki in assay [13] was 209 nM and 120 nM; in assay [1], 126 nM; in assay [5], 12.9 nM and 10.5 nM; in assay [14], 1000 nM; in assay [12], 0.58 nM.
Turning to `COC(=O)[C@@H]1[C@H]2C[C@H]3c4[nH]c5ccccc5c4CCN3C[C@@H]2CC[C@@H]1O` [yohimbic acid methyl ester], the Ki in [3] is 15.8 nM and 47.9 nM; in [11], above 10000 nM; in [9], 5.24 nM; in [14], 562 nM; in assay [12], 30.9 nM; in assay [7] it was 58.9 nM and 35.5 nM and 107 nM and 53.7 nM. The Ki in [10] was 63.1 nM.

Broadly, the Ki is the equilibrium dissociation constant of an inhibitor or competing ligand from its target. Low readings indicate tighter binding, high ones weaker binding.
